# Reference: patent US11903955B2, “Methods of treating heart failure with reduced ejection fraction” (ASTRAZENECA AB, priority 2019, dated 2024)
# Read-outs that look alike come from different tables or passages of the source.
# Tested on: patients with chronic heart failure with reduced ejection fraction (LVEF ≤40%)
# From the text: Eligibility requirements included an age of at least 18 years, New York Heart Association (NYHA) class II, III, or IV symptoms, and an ejection fraction of 40% or less. […] Patients with atrial fibrillation or atrial flutter on their baseline electrocardiogram were required to have a NT-proBNP level of at least 900 pg/mL, irrespective of history of heart failure hospitalization. Patients were required to receive standard drug and device therapy for heart failure including an angiotensin-converting enzyme (ACE) inhibitor, angiotensin receptor blocker (ARB), or sacubitril/valsartan; a beta-blocker, unless contraindicated or not tolerated, and a mineralocorticoid receptor (MR) […], if considered appropriate. Doses were required to be individually optimized, in accordance with the targets recommended in guidelines, and stable for at least 4 weeks (excepting diuretics, which could be dosed flexibly). Investigators were advised that patients with type 2 diabetes should continue to take their glucose-lowering therapies, but these could be adjusted as required. Specifically, the protocol stated that the dose of insulin, sulfonylurea treatment, or both, could be reduced to minimize the risk of hypoglycemia, for example in patients with a baseline hemoglobin A1C (HbA1c) level below 7%.
# All the patients provided written informed consent and entered a 14-day enrollment period during which the trial inclusion and exclusion criteria were checked and baseline information gathered, including findings from clinical examination and laboratory measurements. […] Investigators used an interactive voice or web response system to obtain treatment assignment. Randomization was stratified based on a diagnosis of type 2 diabetes, defined as either an established diagnosis or a HbA1c level of 6.5% or greater (≥48 mmol/mol) confirmed in a central laboratory at screening. Patients were evaluated at 14 days and 60 days after randomization, with a focus on assessment of heart failure and volume status, adverse events, and checking renal function and potassium. Further study visits took place at 4 months and at 4-month intervals thereafter. The protocol required that study drug be permanently discontinued if pregnancy or diabetic ketoacidosis occurred.
# The primary outcome was a composite of a first episode of worsening heart failure or death from cardiovascular causes. An episode of worsening heart failure was either an unplanned hospitalization for heart failure or an urgent heart failure visit requiring intravenous therapy.^14 The first of the secondary outcomes was the composite of heart failure hospitalization or cardiovascular death.
# Outcomes were adjudicated by a clinical-end-points committee, blinded to treatment assignment, according to prespecified criteria.
# Using a two-sided alpha of 5%, we calculated that 844 primary endpoints would provide a statistical power of 90% for the test of the hypothesis. With an expected annual event rate of 11% in the placebo treatment group, approximately 4500 patients were estimated to provide the required number of primary events, based on an anticipated recruitment period of 18 months and an average follow-up period of approximately 24 months. A closed testing procedure was used, including a prespecified hierarchical testing of the primary and secondary endpoints in the order specified above. Type I error was controlled at a two-sided 0.0499 alpha level for multiplicity across primary and secondary endpoints and taking account of one interim efficacy analysis.
# Data from all randomly assigned patients were included in the analyses of the primary and secondary outcomes, according to the intention-to-treat principle. Baseline characteristics were summarized as means and standard deviations, medians and inter-quartile ranges, or percentages.
smiles,measurement,setting,value
"CCOc1ccc(Cc2cc([C@@H]3O[C@H](CO)[C@@H](O)[C@H](O)[C@H]3O)ccc2Cl)cc1 [Dapagliflozin, dapagliflozin]","Cardiovascular death or hospitalization for heart failure, No. (%)",No T2DM (N = 1298),169 (13.0) No. (%)
same,"Cardiovascular death or hospitalization for heart failure, Subjects with Event/100 Patient-Yr",No T2DM (N = 1298),9.1 Event/100 Patient-Yr
same,"Cardiovascular death, No. (%)",No T2DM (N = 1298),106 (8.2) No. (%)
same,"Cardiovascular death, Subjects with Event/100 Patient-Yr",No T2DM (N = 1298),5.5 Event/100 Patient-Yr
same,"Death from any cause, No. (%)",No T2DM (N = 1298),133 (10.3) No. (%)
same,"Death from any cause, Subjects with Event/100 Patient-Yr",No T2DM (N = 1298),6.9 Event/100 Patient-Yr
same,"Hospitalization for heart failure or an urgent heart failure visit, No. (%)",No T2DM (N = 1298),95 (7.3) No. (%)
same,"Hospitalization for heart failure or an urgent heart failure visit, Subjects with Event/100 Patient-Yr",No T2DM (N = 1298),5.1 Event/100 Patient-Yr
same,"Hospitalization for heart failure, No. (%)",No T2DM (N = 1298),93 (7.2) No. (%)
same,"Hospitalization for heart failure, Subjects with Event/100 Patient-Yr",No T2DM (N = 1298),5.0 Event/100 Patient-Yr
same,"Primary composite outcome, No. (%)",No T2DM (N = 1298),171 (13.2) No. (%)
same,"Primary composite outcome, Subjects with Event/100 Patient-Yr",No T2DM (N = 1298),9.2 Event/100 Patient-Yr
same,Total number of (first and recurrent) heart failure hospitalizations and cardiovascular death,No T2DM (N = 1298),239
same,"Urgent heart failure visit, No. (%)",No T2DM (N = 1298),3 (0.2) No. (%)
same,"Urgent heart failure visit, Subjects with Event/100 Patient-Yr",No T2DM (N = 1298),0.2 Event/100 Patient-Yr
same,"Worsening renal function (composite), No. (%)",No T2DM (N = 1298),10 (0.8) No. (%)
same,"Worsening renal function (composite), Subjects with Event/100 Patient-Yr",No T2DM (N = 1298),0.5 Event/100 Patient-Yr
same,"Cardiovascular death or hospitalization for heart failure, No. (%)",T2DM (N = 1075),213 (19.8) No. (%)
same,"Cardiovascular death or hospitalization for heart failure, Subjects with Event/100 Patient-Yr",T2DM (N = 1075),14.4 Event/100 Patient-Yr
same,"Cardiovascular death, No. (%)",T2DM (N = 1075),121 (11.3) No. (%)
same,"Cardiovascular death, Subjects with Event/100 Patient-Yr",T2DM (N = 1075),7.7 Event/100 Patient-Yr
same,"Death from any cause, No. (%)",T2DM (N = 1075),143 (13.3) No. (%)
same,"Death from any cause, Subjects with Event/100 Patient-Yr",T2DM (N = 1075),9.1 Event/100 Patient-Yr
same,"Hospitalization for heart failure or an urgent heart failure visit, No. (%)",T2DM (N = 1075),142 (13.2) No. (%)
same,"Hospitalization for heart failure or an urgent heart failure visit, Subjects with Event/100 Patient-Yr",T2DM (N = 1075),9.6 Event/100 Patient-Yr
same,"Hospitalization for heart failure, No. (%)",T2DM (N = 1075),138 (12.8) No. (%)
same,"Hospitalization for heart failure, Subjects with Event/100 Patient-Yr",T2DM (N = 1075),9.3 Event/100 Patient-Yr
same,"Primary composite outcome, No. (%)",T2DM (N = 1075),215 (20.0) No. (%)
same,"Primary composite outcome, Subjects with Event/100 Patient-Yr",T2DM (N = 1075),14.6 Event/100 Patient-Yr
same,Total number of (first and recurrent) heart failure hospitalizations and cardiovascular death,T2DM (N = 1075),328
same,"Urgent heart failure visit, No. (%)",T2DM (N = 1075),7 (0.7) No. (%)
same,"Urgent heart failure visit, Subjects with Event/100 Patient-Yr",T2DM (N = 1075),0.4 Event/100 Patient-Yr
same,"Worsening renal function (composite), No. (%)",T2DM (N = 1075),18 (1.7) No. (%)
same,"Worsening renal function (composite), Subjects with Event/100 Patient-Yr",T2DM (N = 1075),1.2 Event/100 Patient-Yr
same,"Cardiovascular death or hospitalization for heart failure, Events/100 Patient-Yr",all patients (N = 2373),11.4 Events/100 Patient-Yr
same,"Cardiovascular death or hospitalization for heart failure, No. (%)",all patients (N = 2373),382 (16.1) No. (%)
same,"Cardiovascular death, Events/100 Patient-Yr",all patients (N = 2373),6.5 Events/100 Patient-Yr
same,"Cardiovascular death, No. (%)",all patients (N = 2373),227 (9.6) No. (%)
same,"Death from any cause, Events/100 Patient-Yr",all patients (N = 2373),7.9 Events/100 Patient-Yr
same,"Death from any cause, No. (%)",all patients (N = 2373),276 (11.6) No. (%)
same,"Hospitalization for heart failure or an urgent heart failure visit, Events/100 Patient-Yr",all patients (N = 2373),7.1 Events/100 Patient-Yr
same,"Hospitalization for heart failure or an urgent heart failure visit, No. (%)",all patients (N = 2373),237 (10.0) No. (%)
same,"Hospitalization for heart failure, Events/100 Patient-Yr",all patients (N = 2373),6.9 Events/100 Patient-Yr
same,"Hospitalization for heart failure, No. (%)",all patients (N = 2373),231 (9.7) No. (%)
same,"Primary composite outcome, Events/100 Patient-Yr",all patients (N = 2373),11.6 Events/100 Patient-Yr
same,Total number of (first and recurrent) heart failure hospitalizations and cardiovascular death,all patients (N = 2373),567
same,"Urgent heart failure visit, Events/100 Patient-Yr",all patients (N = 2373),0.3 Events/100 Patient-Yr
same,"Urgent heart failure visit, No. (%)",all patients (N = 2373),10 (0.4) No. (%)
same,"Worsening renal function (composite), Events/100 Patient-Yr",all patients (N = 2373),0.8 Events/100 Patient-Yr
